Assay results: patent US11389539B2, “Hyaluronic acid derivatives into which cationic and hydrophobic groups are introduced” (CHUGAI SEIYAKU KABUSHIKI KAISHA, priority 2016, dated 2022)

Columns and labels:
[1] = Assessment of intraocular migration of eye drops (fluorescent-labeled HA derivative, confocal microscope); assay type: in vivo; settings: mice, 3 μL eye drops to both eyes, 1 hour, frozen sections
Method: The 10k-HA-Chol-17%/ArgNH2-10%/EtOH-67%/FL synthesized in Example 2-26 was dissolved in 10% sucrose solution to a concentration of 50 mg/mL, and 3 μL of the resulting solution was applied to both eyes of mice. Both eyeballs were taken out after 1 hour and frozen sections were prepared. […] On the other hand, carboxyfluorescein was dissolved in 10% sucrose solution to a concentration of 0.0568 mg/mL, 3 μL of the resulting solution was applied to both eyes of mice, and an observation was performed as in the case of the 10k-HA-Chol-17%/ArgNH2-10%/EtOH-67%/FL. As a result, fluorescence from carboxyfluorescein was not observed in any tissues of the eyes including the cornea, conjunctiva and ciliary body.

ApoB mRNA = assay: Suppression of gene expression by HA derivatives containing nucleic acid (transfection of HepG2 cells, quantitative real-time PCR); assay type: cell-based, Human; settings: siRNA 200 nM, 24 hours
Method: ApoB (sense strand: [NT] ID No. 1, number of nucleotides: 21), antisense strand: 3'-[…] ID No. 2, number of nucleotides: 23)) was used as siRNA. First, an aqueous solution of 0.5 mg/mL siRNA and 0.1-M Hepes buffer were mixed, to which 6 mg/mL aqueous solutions of the HA derivatives obtained in Examples 2 and 4 were added to an N/P ratio of 10 or 20 and was pipetted to prepare agents containing nucleic acid (the final concentration of siRNA was 800 nM and the final concentration of Hepes was 10 mM). In order to assess suppression effects of the HA derivatives containing nucleic acid obtained in Example 8-1 on gene expression, a transfection experiment was performed to HepG2 cells. The sucrose solutions containing the HA derivatives containing nucleic acid were added to a 96-well plate. HepG2 cells suspended in DMEM supplemented with 10% FBS was added to 1×10^4 cells/well and cultured for 24 hours. The final concentration of siRNA in transfection was 200 nM. Total RNA was extracted and purified according to the manual using a QIAGEN RNeasy 96 kit. By using the RNA-to-Ct 1 Step kit manufactured by Thermo Fisher Scientific, quantitative real-time PCR was performed on the target ApoB mRNA and GAPDH mRNA as the housekeeping gene using the following primers according to the instruction manual. For the quantitative real-time PCR, Rotor-Gene Q manufactured by QIAGEN was used. […]

In the case of carboxyfluorescein, the “distribution in the conjunctiva and the ciliary body by fluorescence detection” value [1] is reported as “not observed” and the “distribution in the cornea by fluorescence detection” value [1] is reported as “not observed”.
For “siRNA alone: ApoB siRNA, sense strand SEQ ID No. 1 (21 nucleotides), antisense strand SEQ ID No. 2 (23 nucleotides) (sense GUCAUCACACUGAAUACCAAU; antisense AUUGGUAUUCAGUGUGAUGACAC; listed as RNA, chemistry not given here)”, the “expression of ApoB” value (ApoB mRNA) was “does not have an effect of suppressing gene expression”.
